Data from paper PMC10799085, “A miniaturized mode-of-action profiling platform enables high throughput characterization of the molecular and cellular dynamics of EZH2 inhibition” (Scientific Reports, 2024).
Like-named read-outs stand apart in the source and are kept apart here.

What was measured:
[1] = molecular target: T1, PRC2/EZH2+/+ (Homo sapiens, UniProt Q15910); assay: Kinetic probe competition assay (kPCA), TR-FRET; type: binding
T1 construct: purchased Active Motif
Procedure: Biotinylated PRC2 complexes and the fluorescent probe used in TR-FRET assays were generated as described in the supplementary methods section.
For measurements at 25, 30 and 37 °C, the temperature control functionality of the instrument was used.
TR-FRET kPCA traces were exported via Microsoft Excel to GraphPad Prism, where non-specific signals were subtracted and kinetic association competition traces were fitted to the Motulsky–Mahan model “kinetics of competitive binding” to obtain kon (k3), koff (k4) and KD parameters.

[2] = test system: EZH2; design: method as in Konze et al. [41]; conditions: 40-fold higher enzyme concentration; ref Konze et al. [41]; cited from earlier work
[3] = test system: H3K27me3 mark in MDA-MB-231 cells; assay: High content analysis (HCA) of cellular H3K27me3 mark, washout format; type: cell-based; conditions: for IC50: Homo sapiens, MDA-MB-231, read-out: Mean IC50 (M), H3K27 methylation HCA
Procedure: In the low- and high-signal control wells, test compounds were replaced by 10 µM of EZH2 inhibitor (equal to unlabeled probe from ePCA and kPCA) or DMSO, respectively. […] After fixation, the cells were washed with PBS and incubated with 1% BSA blocking solution at RT for 1 h. Blocking solution was discarded, primary monoclonal antibody rabbit Tri-methyl-histone H3K27 (C36B11, Cell signaling) diluted 1:200 in blocking solution was added and incubated overnight at 4 °C. […] Afterwards, cells were washed three times with PBS and incubated at 4 °C until measuring. Fluorescence signals were captured by an Opera Phenix™ High Content Screening (HCA) system (Perkin Elmer) by 10× magnification. […] Microscopy images were initially visualized and preprocessed with MetaXpress High Content Image Acquisition & Analysis Software (Molecular Devices) as previously described. Raw data import, normalization, quality control and fitting curves for IC50 determination of tested compounds were done with Genedata Screener® for high-content screening. Wells with no recognizable signals were masked and the average intensity of the trimethylation signal was normalized to the DMSO control (0%).

[4] = molecular target: T1, PRC2/EZH2+/+; assay: Transition state thermodynamics (Eyring analysis of kPCA at 5-37 °C); type: binding; conditions: Kinetic (Eyre); for Enthalpic Efficiency (kon): association; for Enthalpic Efficiency (koff): dissociation
Procedure: (§1) For thermodynamic analysis of the binding to EZH2+/+ the probe characterization, equilibrium and kinetic probe competition assays described above (previously conducted at 25 °C) were performed at 5, 15, 30 and 37 °C. […] For measurements at 25, 30 and 37 °C, the temperature control functionality of the instrument was used.
For Eyring transition state analysis, changes in the activation entropy ΔS^# and enthalpy ΔH^# were estimated by Eyring analysis using linear regression of. lnkh/kBT=ΔS^#/R-ΔH^#/(RT).
To consider the possible temperature dependence, the activation entropy and enthalpy were obtained along with the activation heat capacity ΔC^#p by nonlinear regression using. lnkh/kBT=-ΔH^#T^∘/RT+ΔS^#T^∘/R+ΔCp#/R[T-T^∘/T-lnT/T^∘],

[5] = molecular target: T2, PRC2/EZH1 (Homo sapiens, UniProt Q92800); assay: Scintillation proximity assay (SPA) of H3K27 methylation; type: biochemical
T2 construct: N-terminal 6His-tagged full length EZH2^Y641N, EZH2^Y111L, EZH2^Y111D, EZH2^Y641N, Y661DEZH2, EZH1; 6His (N); made in house; host or cells: Sf9 insect cells (baculovirus co-infection)
Procedure: Assay-ready plates containing 50 nl of compound dilutions and DMSO controls were filled with 2.5 µL enzyme solution and pre-incubated for 15 min. […] Experiments were also performed without pre-incubation of enzyme and compounds. In this case, the substrate solution was added before enzyme. The reaction was stopped using 1.6 µg/µl streptavidin beads (Perkin Elmer) and 700 µM of SAM (Perkin Elmer). The plates were sealed with transparent foil.
For equilibrium binding competition (ePCA) and SPA enzyme inhibition assays, raw data import, quality control, normalization, and curve fitting to a 4-parameter logistic equation for IC50 determination were performed using the Genedata Screener® software (Genedata AG). ePCA Ki values were either calculated using the Cheng-Prussof equation[68] or with the GraphPad Prism model “One-site—Fit Ki”.

[6] = molecular target: T1, PRC2/EZH2+/+; assay: Equilibrium binding thermodynamics (van't Hoff analysis of ePCA/kPCA at 5-37 °C); conditions: ePCA at 5-37 °C, wild type EZH2
Procedure: as §1
Equilibrium and kinetic binding constants obtained at various temperatures were used to determine the thermodynamic parameters by van’t Hoff and Eyring analysis, as described elsewhere for SPR and radioligand binding experiments[46],[69]. For the van’t Hoff thermodynamic analysis, changes in entropy ΔS° and enthalpy ΔH° were estimated by linear regression using the van’t Hoff equation. lnKA=ΔS^∘/R-ΔH^∘/RT,
Changes in Gibb’s free energy ΔG° were calculated according to. ΔG^∘T=ΔH^∘-T×ΔS^∘
Additionally, the possible temperature dependence of the thermodynamic parameters was considered using the integrated form of the van’t Hoff equation[47] for nonlinear regression to yield the changes in entropy, enthalpy, and heat capacity ΔCp: ln KA=-ΔH^∘T^∘/RT+ΔS^∘T^∘/R+ΔCp/R[T-T^∘/T-lnT/T^∘],

[7] = EZH2+/+ (+ H3K27me3), sheet ePCA&kPCA RT, read-out: Kinetic Kd
[8] = EZH2+/+ (- H3K27me3), sheet ePCA&kPCA RT, read-out: Kinetic Kd

CCCc1cc(C)[nH]c(=O)c1CNC(=O)c1cc(-c2ccc(N3CCN(C(C)C)CC3)nc2)cc2c1cnn2C(C)C [Compound 9, UNC1999]
Calculated RT ([1]; EZH2+/+ (+ H3K27me3)): 0.20 h | Kd [1, 7]: 0.54 nM | RT (Calculated) ([1]; EZH2+/+ (- H3K27me3), 5 °C): 0.341 h | RT (Calculated) ([1]; EZH2+/+ (- H3K27me3), 15 °C): 0.0983 h | RT (Calculated) ([1]; EZH2+/+ (- H3K27me3), 30 °C): 0.0171 h | RT (Calculated) ([1]; EZH2+/+ (- H3K27me3), 37 °C): 0.0129 h | Calculated RT ([1]; EZH2+/+ (- H3K27me3)): 0.0369 h | Kd [1, 8]: 2.39 nM | IC50 [2]: 10 nM

Cc1cc(C)c(CN2CCc3c(Cl)cc(-c4c(C)noc4C)c(Cl)c3C2=O)c(=O)[nH]1 [Compound 14]
AUC (a.u.) ([3]; HCA H3K27 methylation washout pIC50 AUC over all incubation/washout times): 92.2 a.u. | IC50 ([3]; incubation time 0.5 h, washout time 71.5 h): 7e-06 M | IC50 ([3]; incubation time 1 h, washout time 71 h): 4.1e-06 M | IC50 ([3]; incubation time 2 h, washout time 70 h): 2.9e-06 M | IC50 ([3]; incubation time 4 h, washout time 68 h): 1.8e-06 M | IC50 ([3]; incubation time 24 h, washout time 48 h): 1.6e-06 M | IC50 ([3]; incubation time 48 h, washout time 24 h): 5.5e-07 M | IC50 ([3]; incubation time 72 h, washout time 0 h): 4.6e-08 M | Enthalpic Efficiency (kon) ([4]; EZH2+/+ (Linear Fit)): 1.3 kcal/mol | Enthalpic Efficiency (koff) ([4]; EZH2+/+ (Linear Fit)): 1.9 kcal/mol | -T * ΔS°kon-koff ([4]; EZH2+/+ (Linear Fit)): -7.51 kcal/mol | ΔG°kon-koff ([4]; EZH2+/+ (Linear Fit)): -12 kcal/mol | ΔH°kon-koff ([4]; EZH2+/+ (Linear Fit)): -4.49 kcal/mol | Enthalpic Efficiency (kon) ([4]; EZH2+/+ (Non-linear Fit)): 0.47 kcal/mol | Enthalpic Efficiency (koff) ([4]; EZH2+/+ (Non-linear Fit)): 1.3 kcal/mol | -T * ΔS°kon-koff ([4]; EZH2+/+ (Non-linear Fit)): -5.28 kcal/mol | ΔG°kon-koff ([4]; EZH2+/+ (Non-linear Fit)): -12.1 kcal/mol | ΔH°kon-koff ([4]; EZH2+/+ (Non-linear Fit)): -6.79 kcal/mol | Kinetic Efficiency ([1]; EZH2+/+ (+ H3K27me3)): 3.61E-02 | Calculated RT ([1]; EZH2+/+ (+ H3K27me3)): 0.29 h | Kd [1, 7]: 0.303 nM | koff ([1]; EZH2+/+ (+ H3K27me3), sheet ePCA&kPCA RT, read-out: Kinetic koff): 0.000323 s⁻¹ | kon ([1]; EZH2+/+ (+ H3K27me3), sheet ePCA&kPCA RT, read-out: Kinetic kon): 1.06e+06 M⁻¹ s⁻¹ | Kinetic Efficiency ([1]; EZH2+/+ (- H3K27me3)): 2.67E-02 | RT (Calculated) ([1]; EZH2+/+ (- H3K27me3), 5 °C): 2.28 h | koff ([1]; EZH2+/+ (- H3K27me3), 5 °C, read-out: koff (Kinetic)): 0.000251 s⁻¹ | koff ([1]; EZH2+/+ (- H3K27me3), 5 °C, read-out: koff calc (Calculated)): 0.000122 s⁻¹ | kon ([1]; EZH2+/+ (- H3K27me3), 5 °C, read-out: kon (Kinetic)): 111000 M⁻¹ s⁻¹ | RT (Calculated) ([1]; EZH2+/+ (- H3K27me3), 15 °C): 0.613 h | Kd ([1]; EZH2+/+ (- H3K27me3), 15 °C, read-out: Kd (Kinetic)): 0.378 nM | koff ([1]; EZH2+/+ (- H3K27me3), 15 °C, read-out: koff (Kinetic)): 0.000211 s⁻¹ | kon ([1]; EZH2+/+ (- H3K27me3), 15 °C, read-out: kon (Kinetic)): 559000 M⁻¹ s⁻¹ | RT (Calculated) ([1]; EZH2+/+ (- H3K27me3), 30 °C): 0.244 h | Kd ([1]; EZH2+/+ (- H3K27me3), 30 °C, read-out: Kd (Kinetic)): 5.24 nM | koff ([1]; EZH2+/+ (- H3K27me3), 30 °C, read-out: koff (Kinetic)): 0.00307 s⁻¹ | koff ([1]; EZH2+/+ (- H3K27me3), 30 °C, read-out: koff calc (Calculated)): 0.00114 s⁻¹ | kon ([1]; EZH2+/+ (- H3K27me3), 30 °C, read-out: kon (Kinetic)): 582000 M⁻¹ s⁻¹ | RT (Calculated) ([1]; EZH2+/+ (- H3K27me3), 37 °C): 0.14 h | Kd ([1]; EZH2+/+ (- H3K27me3), 37 °C, read-out: Kd (Kinetic)): 2.4 nM | koff ([1]; EZH2+/+ (- H3K27me3), 37 °C, read-out: koff (Kinetic)): 0.00199 s⁻¹ | koff ([1]; EZH2+/+ (- H3K27me3), 37 °C, read-out: koff calc (Calculated)): 0.00194 s⁻¹ | kon ([1]; EZH2+/+ (- H3K27me3), 37 °C, read-out: kon (Kinetic)): 845000 M⁻¹ s⁻¹ | Calculated RT ([1]; EZH2+/+ (- H3K27me3)): 0.21 h | Kd [1, 8]: 2.27 nM | koff ([1]; EZH2+/+ (- H3K27me3), sheet ePCA&kPCA RT, read-out: Kinetic koff): 0.00201 s⁻¹ | kon ([1]; EZH2+/+ (- H3K27me3), sheet ePCA&kPCA RT, read-out: Kinetic kon): 883000 M⁻¹ s⁻¹ | Ligand Efficiency - 0' enzyme:inhibitor pre-incubation EZH1 [5]: 1.1 | Ligand Efficiency - 15' enzyme:inhibitor pre-incubation EZH1 [5]: 1.1 | Ligand Efficiency - 60' enzyme:inhibitor pre-incubation EZH1 [5]: 1.1 | IC50 ([5]; 0' enzyme:inhibitor pre-incubation, read-out: SPA Mean IC50 (M) - 0' enzyme:inhibitor pre-incubation EZH1): 3.1e-07 M | IC50 ([5]; 15' enzyme:inhibitor pre-incubation, read-out: SPA Mean IC50 (M) - 15' enzyme:inhibitor pre-incubation EZH1): 2.9e-07 M | IC50 ([5]; 60' enzyme:inhibitor pre-incubation, read-out: SPA Mean IC50 (M) - 60' enzyme:inhibitor pre-incubation EZH1): 2.9e-07 M | binding driving force, polynomial van't Hoff analysis [6]: entropy-driven
